US9446044B2, “DYRK1 inhibitors and uses thereof” (DIAXONHIT, priority 2011, dated 2016)
Like-named read-outs stand apart in the source and are kept apart here.

What was measured:
DYRK1B = DYRK1B (Homo sapiens (Human), UniProt Q9Y463); assay: DYRK1B kinase assay (HotSpot, Reaction Biology); assay type: biochemical
DYRK1A = DYRK1A (Homo sapiens (Human), UniProt Q13627); assay: DYRK1A kinase assay (HotSpot, Reaction Biology); assay type: biochemical; conditions: purified recombinant kinase, 10 μM ATP, room temperature 120 min
[1] = purified recombinant kinase, 10 μM ATP, room temperature 120 min

Chain of DYRK1B (Q9Y463 whole entry): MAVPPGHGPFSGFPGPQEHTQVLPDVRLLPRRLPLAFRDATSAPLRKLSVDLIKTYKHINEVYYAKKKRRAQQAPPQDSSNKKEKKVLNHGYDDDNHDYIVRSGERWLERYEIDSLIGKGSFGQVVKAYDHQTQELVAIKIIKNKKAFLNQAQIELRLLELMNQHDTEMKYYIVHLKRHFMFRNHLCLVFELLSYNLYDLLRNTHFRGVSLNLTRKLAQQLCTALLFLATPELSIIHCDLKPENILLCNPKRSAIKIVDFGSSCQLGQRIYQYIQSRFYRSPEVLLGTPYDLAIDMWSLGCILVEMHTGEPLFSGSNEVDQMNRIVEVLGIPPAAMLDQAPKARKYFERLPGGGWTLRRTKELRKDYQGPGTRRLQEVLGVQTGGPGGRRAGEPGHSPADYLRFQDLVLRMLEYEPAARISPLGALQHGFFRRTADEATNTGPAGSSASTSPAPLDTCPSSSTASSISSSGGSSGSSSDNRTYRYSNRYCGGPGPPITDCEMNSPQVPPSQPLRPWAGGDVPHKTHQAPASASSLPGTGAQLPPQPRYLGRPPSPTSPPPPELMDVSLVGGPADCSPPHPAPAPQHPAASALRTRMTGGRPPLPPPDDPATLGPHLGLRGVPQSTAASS

| Structure (SMILES) | IC50 (DYRK1B; [1]) | IC50 (DYRK1A) | IC50 (DYRK1B) |
| --- | --- | --- | --- |
| COC(=N)c1nc2ccc3ncnc(Nc4ccc(Br)cc4F)c3c2s1 [Compound 44, Methyl 9-(4-bromo-2-fluorophenylamino)thiazolo[5,4-f]quinazoline-2-carbimidate] | – | 3.6 nM | 6.55 nM |
| COC(=N)c1nc2ccc3ncnc(Nc4ccc(Cl)cc4Cl)c3c2s1 [Compound 72, Methyl 9-(2,4-dichlorophenylamino)thiazolo[5,4-f]quinazoline-2-carbimidate] | 0.28 nM | 0.22 nM | – |
| COC(=N)c1nc2ccc3ncnc(Nc4ccc(OC)cc4OC)c3c2s1 [Compound 62, Methyl 9-(2,4-dimethoxyphenylamino)thiazolo[5,4-f]quinazoline-2-carbimidate] | 11.1 nM | 9.53 nM | – |
| COC(=N)c1nc2ccc3ncnc(Nc4ccc(N(C)C)cc4)c3c2s1 [Compound 76, Methyl 9-(4-(dimethylamino)phenylamino)thiazolo[5,4-f]quinazoline-2-carbimidate] | 64.3 nM | 35.6 nM | – |

Continued by falling IC50 (DYRK1B; [1]), values first:

| IC50 (DYRK1B; [1]) | IC50 (DYRK1A) | Structure (SMILES) | IC50 (DYRK1B) |
| --- | --- | --- | --- |
| 486 nM | 436 nM | COC(=N)c1nc2ccc3ncnc(Nc4cc(OC)c(OC)c(OC)c4)c3c2s1 [Compound 61, Methyl 9-(3,4,5-trimethoxyphenylamino)thiazolo[5,4-f]quinazoline-2-carbimidate] | – |
| 7.72 nM | 6.02 nM | CCOC(=N)c1nc2ccc3ncnc(Nc4ccc5c(c4)OCO5)c3c2s1 [Compound 82, Ethyl 9-(benzo[d][1,3]dioxol-5-ylamino)thiazolo[5,4-j]quinazoline-2-carbimidate] | – |
| 4.74 nM | 1.13 nM | COC(=N)c1nc2ccc3ncnc(Nc4ccc(Cl)cc4)c3c2s1 [Compound 56, Methyl 9-(4-chlorophenylamino)thiazolo[5,4-f]quinazoline-2-carbimidate] | – |
| 3.66 nM | 2.76 nM | COC(=N)c1nc2ccc3ncnc(Nc4cc(Br)c5c(c4)OCO5)c3c2s1 [Compound 47, Methyl 9-(7-bromobenzo[d][1,3]dioxol-5-ylamino)thiazolo[5,4-f]quinazoline-2-carbimidate] | – |
| 2.83 nM | 0.98 nM | COC(=N)c1nc2ccc3ncnc(Nc4ccc(C)cc4)c3c2s1 [Compound 65, Methyl 9-(p-tolylamino)thiazolo[5,4-f]quinazoline-2-carbimidate] | – |
